{"source": "patent US20090030072A1", "about": "“PHARMACEUTICAL COMBINATION OF OPIOID AND PRO[…]” (SUCAMPO AG, priority 2007, published 2009)", "system": "oxycodone-induced constipation in mice", "assay": "Graphite marker propulsion in the intestine, oxycodone-induced constipation in mice", "type": "in vivo, Male Crlj: CD1 (ICR) mice", "settings": "150 minutes after graphite marker", "protocol": "Male Crlj: CD1 (ICR) mice were given oral administration of 0.1 mL of graphite maker (INK-30 containing 1% tragacanth gum). Immediately after administration of the graphite marker, the animals were treated orally with oxycodone at 5 mg/kg. The dosing volume of oxycodone was set at 5 mL/kg; the animals of the normal group were given the same volume of 0.5% CMC—Na. Immediately after administration of oxycodone or 0.5% CMC—Na, the animal was treated with Compound 1. The dosing volume of the Compound 1 was set at 5 mL/kg; the animals of the normal and control groups were given the same volume of water for injection. The animals were euthanized by cervical dislocation 150 minutes after administration of graphite marker, and the abdomen was cut open. The distance from the stomach to the cecum, and moving distance of the graphite marker in the intestine were measured. Propulsion rate was calculated by the following formula.\nPropulsion rate (%)=(Moving distance of graphite marker/Distance from the stomach to the cecum)×100", "data": [{"smiles": "CCCCC(F)(F)C(=O)CCC1C(O)CC(=O)C1CCCCCCC(=O)O", "note": "(stereo not drawn) [Compound 1, 13,14-dihydro-15-keto-16,16-difluoro-PGE1]", "values": [{"measurement": "The graphite marker propulsion rate Mean ± S.E.", "setting": "Compound 1 100 μg/kg combined with oxycodone 5 mg/kg oral, n=15, p < 0.05 compared to control group", "result": "80.5±5.5", "unit": "%"}]}, {"smiles": "COc1ccc2c3c1O[C@H]1C(=O)CC[C@@]4(O)[C@@H](C2)N(C)CC[C@]314", "note": "[oxycodone]", "values": [{"measurement": "The graphite marker propulsion rate Mean ± S.E.", "setting": "control group: oxycodone 5 mg/kg oral alone, n=15, p < 0.01 compared to normal group (99.8 ± 0.2)", "result": "62.3±5.6", "unit": "%"}, {"measurement": "The graphite marker propulsion rate Mean ± S.E.", "setting": "control group: oxycodone 5 mg/kg oral alone, n=15, p < 0.01 compared to normal group (99.8 ± 0.2), listed as Oxycodone", "result": "62.3 ± 5.6", "unit": "%"}]}]}
